Data as given in patent US10508077B2 (FORMA Therapeutics, Inc., priority 2015, dated 2019).

These molecules were tested against T1, Full length human recombinant HDAC8 protein (Homo sapiens, UniProt Q9BY41) (assay: In vitro histone deacetylase assay: enzymatic HDAC8 assay, electrophoretic mobility shift). Conditions: substrate RHKK(Ac)-NH2, 1 nM enzyme, compounds listed under IC50 range headings.
T1 construct: Full length human recombinant HDAC8 protein was expressed in baculoviral system; made in house
T1 sequence (Q9BY41 1-377): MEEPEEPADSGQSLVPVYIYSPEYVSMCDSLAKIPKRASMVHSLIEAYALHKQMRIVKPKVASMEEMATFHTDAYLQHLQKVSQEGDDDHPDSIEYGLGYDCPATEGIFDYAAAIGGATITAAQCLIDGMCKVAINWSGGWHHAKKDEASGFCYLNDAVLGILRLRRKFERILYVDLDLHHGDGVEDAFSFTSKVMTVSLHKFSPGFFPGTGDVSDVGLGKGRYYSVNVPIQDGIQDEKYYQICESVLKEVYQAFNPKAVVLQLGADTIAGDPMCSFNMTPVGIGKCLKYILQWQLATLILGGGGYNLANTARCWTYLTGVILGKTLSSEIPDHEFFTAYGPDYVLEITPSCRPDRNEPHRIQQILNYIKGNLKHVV
Type: biochemical
Description: The enzymatic HDAC8 assay was performed using electrophoretic mobility shift assay. Full length human recombinant HDAC8 protein was expressed in baculoviral system and purified by affinity chromatography. The enzymatic reactions were assembled in 384 well plates in a total volume of 25 μL in a reaction buffer composing: 100 mM HEPES, pH7.5, 25 mM KC, 0.1% bovine serum albumin, 0.01% Triton X-100, 1% DMSO (from compounds) 2 μM of the fluorescently labeled peptide substrate and enzyme. The enzyme was added at a final concentration of 1 nM. The peptide substrate RHKK(Ac)-NH2 was used. The compounds were tested at 12 concentrations spaced by 3× dilution intervals. Negative control samples (0%-inhibition in the absence of inhibitor) and positive control samples (100%-inhibition) were assembled in replicates of four in each assay plate. The reactions were incubated at 25° C. and quenched by the addition of 45 μL of termination buffer (100 mM HEPES, pH 7.5, 0.01% Triton X-100, 0.05% SDS).
The terminated assay plates were analyzed on LabChip® 3000 microfluidic electrophoresis instrument (Perkin Elmer/Caliper Life Sciences). The fluorescence intensity of the electrophoretically separated de-acetylated product and substrate peptide was measured. Activity in each sample was determined as the product to sum ratio (PSR): P/(S+P), where P is the peak height of the product peptide and S is the peak height of the substrate peptide. Percent inhibition (Pinh) is determined using the following equation: Pinh=(PSR0%−PSRinh)/(PSR0%−PSR100%)*100, where PSRinh is the product sum ratio in the presence of inhibitor, PSR0% is the average product sum ration in the absence of inhibitor and PSR 100% is the average product sum ratio in 100%-inhibition control samples. The IC50 values of inhibitors were determined by fitting the %-inhibition curves with 4 parameter dose-response model using XLfit 4 software. Ranges of IC50 values for compounds of the invention are disclosed in Table 26.
`CC(C)CCC(=O)NC1CCN(c2ccccc2/C=C/C(=O)NO)CC1` [Example I-157, (E)-N-(1-(2-(3-(hydroxyamino)-3-oxoprop-1-en-1-yl)phenyl)piperidin-4-yl)-4-methylpentanamide] was tested, and the IC50 was under 1000 nM.
With `O=C(/C=C/c1ccccc1N1CCN(C(=O)C2(c3cnccn3)CC2)CC1)NO` [Example I-35, (2E)-N-hydroxy-3-(2-{4-[1-(pyrazin-2-yl)cyclopropanecarbonyl]piperazin-1-yl}phenyl)prop-2-enamide] the IC50 was 1000 to 10000 nM.
With `O=C(/C=C/c1ccccc1NC(=O)C1(c2ccccc2)CC1)NO` [Example I-64, (E)-N-(2-(3-(hydroxyamino)-3-oxoprop-1-en-1-yl)phenyl)-1-phenylcyclopropane-1-carboxamide] the IC50 was under 1000 nM.
Work on `NC1CCN(c2ccccc2/C=C/C(=O)NO)CC1` [Example I-8, (E)-3-(2-(4-aminopiperidin-1-yl)phenyl)-N-hydroxyacrylamide 2,2,2-trifluoroacetate] yielded an IC50 of 1000 to 10000 nM.
`O=C(/C=C/c1ccccc1N1CCN(C(=O)C2Cc3ccccc3C2)CC1)NO` [Example I-20, (E)-3-(2-(4-(2,3-dihydro-1H-indene-2-carbonyl)-piperazin-1-yl)phenyl)-N-hydroxyacrylamide] gave an IC50 of 1000 to 10000 nM.
`COc1ccccc1S(=O)(=O)N1CCN(c2ccccc2/C=C/C(=O)NO)CC1` [Example I-31, (E)-N-hydroxy-3-(2-(4-((2-methoxyphenyl)sulfonyl)piperazin-1-yl)phenyl)acrylamide] was tested, and the IC50 was 1000 to 10000 nM.
In the case of `O=C(/C=C/c1ccccc1N1CCN(C(=O)c2cc3ccccn3n2)CC1)NO` [Example I-22, (E)-N-hydroxy-3-(2-(4-(pyrazolo[1,5-a]pyridine-2-carbonyl)piperazin-1-yl)phenyl)acrylamide], the IC50 is reported as 1000 to 10000 nM.
With `CC(C)(C)OC(=O)N1CCCC2(CCN(c3ccccc3/C=C/C(=O)NO)CC2)C1` [Example I-109, tert-butyl (E)-9-(2-(3-(hydroxyamino)-3-oxoprop-1-en-1-yl)phenyl)-2,9-diazaspiro[5.5]undecane-2-carboxylate] the IC50 was under 1000 nM.
Molecule `COCCn1c(CNc2ccccc2/C=C/C(=O)NO)nc2ccccc21` [Example I-2, (E)-N-hydroxy-3-(2-(((1-(2-methoxyethyl)-1H-benzo[d]imidazol-2-yl)methyl)amino)phenyl)acrylamide] has an IC50 of 1000 to 10000 nM.
With `O=C(/C=C/c1ccccc1N1CCN(S(=O)(=O)c2ccc(C(F)(F)F)nc2)CC1)NO` [Example I-248, (E)-N-hydroxy-3-(2-(4-((6-(trifluoromethyl)pyridin-3-yl)sulfonyl)piperazin-1-yl)phenyl)acrylamide] the IC50 was under 1000 nM.
In the case of `O=C(/C=C/c1ccccc1NCc1cccc(C(F)(F)F)c1)NO` [Example I-46, (E)-N-hydroxy-3-(2-((3-(trifluoromethyl)benzyl)amino)phenyl)acrylamide], the IC50 is reported as under 1000 nM.
Work on `CC(C)(C)OC(=O)N1CC(=O)N(c2ccccc2/C=C/C(=O)NO)C1` [Example I-261, tert-butyl (E)-3-(2-(3-(hydroxyamino)-3-oxoprop-1-en-1-yl)phenyl)-4-oxoimidazolidine-1-carboxylate] yielded an IC50 of under 1000 nM.
For `Cc1cccc(C(=O)NC2CCN(c3ccccc3/C=C/C(=O)NO)CC2)c1` [Example I-14], the IC50 was 1000 to 10000 nM.
In the case of `O=C(/C=C/c1ccccc1N1CCC(NC(=O)c2ccoc2)CC1)NO` [Example I-159], the IC50 is reported as under 1000 nM.
Molecule `Cc1ccccc1Oc1ncccc1C(=O)NC1CCN(c2ccccc2/C=C/C(=O)NO)CC1` [Example I-141, (E)-N-(1-(2-(3-(hydroxyamino)-3-oxoprop-1-en-1-yl)phenyl)piperdin-4-yl)-2-(o-tolyloxy)nicotinamide] has an IC50 of under 1000 nM.
`O=C(/C=C/c1ccccc1C(=O)N1CCS(=O)(=O)CC1)NO` [II-24, (E)-3-(2-(1,1-dioxidothiomorpholine-4-carbonyl)phenyl)-N-hydroxyacrylamide] showed an IC50 of under 1000 nM.
In the case of `O=C(/C=C/c1ccccc1C(=O)Nc1cccc(C(F)(F)F)c1)NO` [II-36, (E)-2-(3-(hydroxyamino)-3-oxoprop-1-en-1-yl)-N-(3-(trifluoromethyl)phenyl)benzamide], the IC50 is reported as under 1000 nM.
Work on `O=C(/C=C/c1ccccc1N1CCC(NC(=O)C2CCC(F)(F)CC2)CC1)NO` [Example I-142, (E)-4,4-difluoro-N-(1-(2-(3-(hydroxyamino)-3-oxoprop-1-en-1-yl)phenyl)piperidin-4-yl)cyclohexane-1-carboxamide] yielded an IC50 of under 1000 nM.
`COc1ccc(CC(=O)NC2CCN(c3ccccc3/C=C/C(=O)NO)CC2)cc1` [Example I-9, (E)-N-hydroxy-3-(2-(4-(2-(4-methoxyphenyl)acetami-do)piperidin-1-yl)phenyl)acrylamide] was tested, and the IC50 was 1000 to 10000 nM.
With `Cn1cc(-c2ncc(C(=O)Nc3ccccc3/C=C/C(=O)NO)s2)cn1` [Example I-285, (E)-N-(2-(3-(hydroxyamino)-3-oxoprop-1-en-1-yl)phenyl)-2-(1-methyl-1H-pyrazol-4-yl)thiazole-5-carboxamide] the IC50 was under 1000 nM.
With `CCSCC(=O)NC1CCN(c2ccccc2/C=C/C(=O)NO)CC1` [Example I-131] the IC50 was under 1000 nM.
For `Cn1cncc1C(=O)N1CCN(c2ccccc2/C=C/C(=O)NO)CC1` [Example I-199, (E)-N-hydroxy-3-(2-(4-(1-methyl-1H-imidazole-5-carbonyl)piperazin-1-yl)phenyl)acrylamide], the IC50 was under 1000 nM.
Molecule `CCc1ccc(NC(=O)c2ccccc2/C=C/C(=O)NO)cc1` [II-3, (E)-N-(4-ethylphenyl)-2-(3-(hydroxyamino)-3-oxoprop-1-en-1-yl)benzamide] has an IC50 of 1000 to 10000 nM.
`COc1ccc(CNC(=O)c2ccccc2/C=C/C(=O)NO)cc1` [II-5, (E)-2-(3-(hydroxyamino)-3-oxoprop-1-en-1-yl)-N-(4-methoxybenzyl)benzamide] showed an IC50 of 1000 to 10000 nM.
Molecule `Cc1nn(C)c(Cl)c1S(=O)(=O)N1CCN(c2ccccc2/C=C/C(=O)NO)CC1` [Example I-243, (E)-3-(2-(4-((5-chloro-1,3-dimethyl-1H-pyrazol-4-yl)sulfonyl)piperazin-1-yl)phenyl)-N-hydroxyacrylamide] has an IC50 of under 1000 nM.
Molecule `O=C(/C=C/c1ccccc1N1CCN(S(=O)(=O)C2CCOCC2)CC1)NO` [Example I-255, (E)-N-hydroxy-3-(2-(4-((tetrahydro-2H-pyran-4-yl)sulfonyl)piperazin-1-yl)phenyl)acrylamide] has an IC50 of under 1000 nM.
In the case of `Cc1cc(C(=O)Nc2ccccc2/C=C/C(=O)NO)n(C)n1` [Example I-80, (E)-N-(2-(3-(hydroxyamino)-3-oxoprop-1-en-1-yl)phenyl)-1,3-dimethyl-1H-pyrazole-5-carboxamide], the IC50 is reported as under 1000 nM.
`O=C(/C=C/c1ccccc1N1CCC(NC(=O)CN2CCS(=O)(=O)CC2)CC1)NO` [Example I-138, (E)-3-(2-(4-(2-(1,1-dioxidothiomorpholino)acetamido)piperidin-1-yl)phenyl)-N-hydroxyacrylamide] showed an IC50 of under 1000 nM.
In the case of `CC(=O)N1CCN(c2ccccc2/C=C/C(=O)NO)CC1` [Example I-193, (E)-3-(2-(4-actylpiperazin-1-yl)phenyl)-N-hydroxyacrylamide], the IC50 is reported as under 1000 nM.
With `COCC1(N(C)C(=O)c2ccccc2/C=C/C(=O)NO)CC1` [II-11, (E)-2-(3-(hydroxyamino)-3-oxoprop-1-en-1-yl)-N-(1-(methoxymethyl)cyclopropyl)-N-methylbenzamide] the IC50 was 1000 to 10000 nM.
`Cc1nc(CC(=O)NC2CCN(c3ccccc3/C=C/C(=O)NO)CC2)c(C)s1` [Example I-158, (E)-3-(2-(4-(2-(2,5-dimethylthiazol-4-yl)acetamido)piperidin-1-yl)phenyl)-N-hydroxyacrylamide] showed an IC50 of under 1000 nM.
`O=C(/C=C/c1ccccc1N1CCC(NC(=O)C2CC(F)(F)C2)CC1)NO` [Example I-149, (E)-3,3-difluoro-N-(1-(2-(3-(hydroxyamino)-3-oxoprop-1-en-1-yl)phenyl)piperidin-4-yl)cyclobutane-1-carboxamide] was tested, and the IC50 was under 1000 nM.
In the case of `O=C(/C=C/c1ccccc1C(=O)N1CC(N2CCS(=O)(=O)CC2)C1)NO` [II-10, (E)-3-(2-(3-(1,1-dioxidothiomorpholino)azetidine-1-carbonyl)phenyl)-N-hydroxyacrylamide], the IC50 is reported as 1000 to 10000 nM.
`O=C(/C=C/c1ccccc1N1CCC(NS(=O)(=O)c2ccc(F)cc2)CC1)NO` [Example I-222, (E)-3-(2-(4-((4-fluorophenyl)sulfonamido)piperidin-1-yl)phenyl)-N-hydroxyacrylamide] was tested, and the IC50 was under 1000 nM.
